US6914045B2, “Glycopeptide antibiotics” (Wyeth Holdings Corporation, priority 2001, dated 2005)
Converted amounts (≈) assume the structure as drawn.

Experiments:
Experiment in all cases: in vitro antibacterial evaluation, MIC by broth dilution
Type in all cases: cell-based
Escherichia coli = conditions: 18 hours at 35° C.
Experimental: (§1) The minimum inhibitory concentration (MIC), the lowest concentration of the antibiotic which inhibits growth of the test organism, is determined by the broth dilution method using Muller-Hinton II […] (Baltimore Biological Laboratories) following the recommendations of the National Committee for Clinical Laboratory Standards [Methods for dilution antimicrobial susceptibility tests for bacteria that grow aerobically, approved standard M7-A2, National Committee for Clinical Laboratory Standards, Villanova, Pa.].
(§2) An inoculum level of 5×10^5 CFU/mL, and a range of antibiotic concentrations (64-0.06 μg/mL) is used. […] The test organisms include a spectrum of Gram-positive bacteria comprised of Staphylococcus sp., Streptococcus sp. and Enterococcus sp. These organisms include recent clinical isolates that are resistant to methicillin, penicillin and/or vancomycin.

Staphylococcus sp. = tested on: Staphylococcus sp.
Experimental: (§3) Methods for in vitro Antibacterial Evaluation (Table 1)
as §1, §2

Enterococcus sp. = conditions: broth dilution, 18 hours at 35° C.
Experimental: as §3, §1, §2

Streptococcus sp. = conditions: broth dilution, 18 hours at 35° C.
Experimental: as §3, §1, §2

[1] = broth dilution, 18 hours at 35° C.
[2] = broth dilution, 18 hours at 35° C.; strain GC 4547

## CC(c1ccccc1)C1NC(=O)CNC(=O)C(CO)NC(=O)C(C(O)C2CNC(=N)N2C2OC(CO)C(O)C(O)C2O)NC(=O)C(C(O)C2CNC(=N)N2)NC(=O)C(Cc2ccc(OC3OC(CO)C(OC4OC(COC(=O)Cc5ccccc5)C(O)C(O)C4O)C(O)C3O)cc2)NC1=O (centres unmarked) [Example 98c]
Escherichia coli
  MIC Escherichia coli (GC 4559): 64 µg/mL (≈ 45.3 µM)
  MIC Escherichia coli (GC 4560): 0.5 µg/mL (≈ 0.354 µM)
Staphylococcus sp.; [1]
  MIC Coagulase Negative Staphylococcus (GC 4537): 2 µg/mL (≈ 1.42 µM)
  MIC Coagulase Negative Staphylococcus (GC 4538): 1 µg/mL (≈ 0.708 µM)
  MIC Coagulase Negative Staphylococcus (GC 4547): 1 µg/mL (≈ 0.708 µM)
Staphylococcus sp.; broth dilution, 18 hours at 35° C.; strain GC 4537
  MIC Coagulase Negative Staphylococcus (GC 4537): 2 µg/mL (≈ 1.42 µM)
Staphylococcus sp.; broth dilution, 18 hours at 35° C.; strain GC 4538
  MIC Coagulase Negative Staphylococcus (GC 4538): 1 µg/mL (≈ 0.708 µM)
Staphylococcus sp.; [2]
  MIC Coagulase Negative Staphylococcus (GC 4547): 1 µg/mL (≈ 0.708 µM)
Staphylococcus sp.; strain ATCC 29213; broth dilution, 18 hours at 35° C.
  MIC Staphylococcus aureus (ATCC 29213): 2 µg/mL (≈ 1.42 µM)
Staphylococcus sp.; strain GC 1131; broth dilution, 18 hours at 35° C.
  MIC Staphylococcus aureus (GC 1131): 2 µg/mL (≈ 1.42 µM)
Staphylococcus sp.; strain GC 4535; broth dilution, 18 hours at 35° C.
  MIC Staphylococcus aureus (GC 4535): 4 µg/mL (≈ 2.83 µM)
Staphylococcus sp.; strain GC 4536; broth dilution, 18 hours at 35° C.
  MIC Staphylococcus aureus-SMITH (GC 4536): 2 µg/mL (≈ 1.42 µM)
Enterococcus sp.; Enterococcus faecalis (ATCC 29212)
  MIC Enterococcus faecalis (ATCC 29212): 16 µg/mL (≈ 11.3 µM)
Enterococcus sp.; Enterococcus faecalis (GC 2242)
  MIC Enterococcus faecalis (GC 2242): 8 µg/mL (≈ 5.66 µM)
Enterococcus sp.; Enterococcus faecalis (GC 4552)
  MIC Enterococcus faecalis (GC 4552): 16 µg/mL (≈ 11.3 µM)
Enterococcus sp.
  MIC Enterococcus faecalis (ATCC 29212): 16 µg/mL (≈ 11.3 µM)
  MIC Enterococcus faecalis (GC 2242): 8 µg/mL (≈ 5.66 µM)
  MIC Enterococcus faecalis (GC 4552): 16 µg/mL (≈ 11.3 µM)

## CC(c1ccccc1)C1NC(=O)CNC(=O)C(CO)NC(=O)C(C(O)C2CNC(=N)N2C2OC(CO)C(O)C(O)C2O)NC(=O)C(C(O)C2CNC(=N)N2)NC(=O)C(Cc2ccc(OC3OC(CO)C(OC4OC(CO)C(OCC=C(c5ccccc5)c5ccccc5)C(O)C4O)C(O)C3O)cc2)NC1=O (centres unmarked) [Example 241a]
Streptococcus sp.
  MIC Streptococcus agalactiae (GC 4564): <0.06 µg/mL
  MIC Streptococcus pneumoniae (ATCC 6301): <0.06 µg/mL
  MIC Streptococcus pneumoniae (GC 1894): <0.06 µg/mL
  MIC Streptococcus pneumoniae (GC 4565): <0.06 µg/mL
  MIC Streptococcus pyogenes (GC 4563): <0.06 µg/mL
Streptococcus sp.; inoculum 5×10^5 CFU/mL, strain ATCC 6301
  MIC Streptococcus pneumoniae (ATCC 6301): <0.06 µg/mL
Streptococcus sp.; inoculum 5×10^5 CFU/mL, strain GC 1894
  MIC Streptococcus pneumoniae (GC 1894): <0.06 µg/mL
Streptococcus sp.; inoculum 5×10^5 CFU/mL, strain GC 4563
  MIC Streptococcus pyogenes (GC 4563): <0.06 µg/mL
Streptococcus sp.; inoculum 5×10^5 CFU/mL, strain GC 4564
  MIC Streptococcus agalactiae (GC 4564): <0.06 µg/mL
Streptococcus sp.; inoculum 5×10^5 CFU/mL, strain GC 4565
  MIC Streptococcus pneumoniae (GC 4565): <0.06 µg/mL
Staphylococcus sp.; [1]
  MIC Coagulase Negative Staphylococcus (GC 4547): 4 µg/mL (≈ 2.69 µM)
  MIC Coagulase Negative Staphylococcus (GC 4548): 2 µg/mL (≈ 1.34 µM)
  MIC Coagulase Negative Staphylococcus (GC 4549): 1 µg/mL (≈ 0.672 µM)
  MIC Coagulase Negative Staphylococcus (GC 4551): 4 µg/mL (≈ 2.69 µM)
  MIC Coagulase Negative Staphylococcus (GC 6257): 1 µg/mL (≈ 0.672 µM)
  MIC Staphylococcus aureus (ATCC 29213): 2 µg/mL (≈ 1.34 µM)
  MIC Staphylococcus aureus (GC 1131): 2 µg/mL (≈ 1.34 µM)
  MIC Staphylococcus aureus (GC 3051): 2 µg/mL (≈ 1.34 µM)
  MIC Staphylococcus aureus (GC 3053): 2 µg/mL (≈ 1.34 µM)
  MIC Staphylococcus aureus (GC 4541): 2 µg/mL (≈ 1.34 µM)
  MIC Staphylococcus aureus (GC 4542): 2 µg/mL (≈ 1.34 µM)
  MIC Staphylococcus aureus (GC 4544): 4 µg/mL (≈ 2.69 µM)
  MIC Staphylococcus aureus (GC 4545): 2 µg/mL (≈ 1.34 µM)
  MIC Staphylococcus aureus-SMITH (GC 4543): 2 µg/mL (≈ 1.34 µM)
  MIC Staphylococcus haemolyticus (GC 4546): 2 µg/mL (≈ 1.34 µM)
Staphylococcus sp.; broth dilution, 18 hours at 35° C.; strain ATCC 29213
  MIC Staphylococcus aureus (ATCC 29213): 2 µg/mL (≈ 1.34 µM)
Staphylococcus sp.; broth dilution, 18 hours at 35° C.; strain GC 1131
  MIC Staphylococcus aureus (GC 1131): 2 µg/mL (≈ 1.34 µM)
Staphylococcus sp.; broth dilution, 18 hours at 35° C.; strain GC 3051
  MIC Staphylococcus aureus (GC 3051): 2 µg/mL (≈ 1.34 µM)
Staphylococcus sp.; broth dilution, 18 hours at 35° C.; strain GC 3053
  MIC Staphylococcus aureus (GC 3053): 2 µg/mL (≈ 1.34 µM)
Staphylococcus sp.; broth dilution, 18 hours at 35° C.; strain GC 4541
  MIC Staphylococcus aureus (GC 4541): 2 µg/mL (≈ 1.34 µM)
Staphylococcus sp.; broth dilution, 18 hours at 35° C.; strain GC 4542
  MIC Staphylococcus aureus (GC 4542): 2 µg/mL (≈ 1.34 µM)
Staphylococcus sp.; broth dilution, 18 hours at 35° C.; strain GC 4543
  MIC Staphylococcus aureus-SMITH (GC 4543): 2 µg/mL (≈ 1.34 µM)
Staphylococcus sp.; broth dilution, 18 hours at 35° C.; strain GC 4544
  MIC Staphylococcus aureus (GC 4544): 4 µg/mL (≈ 2.69 µM)
Staphylococcus sp.; broth dilution, 18 hours at 35° C.; strain GC 4545
  MIC Staphylococcus aureus (GC 4545): 2 µg/mL (≈ 1.34 µM)
Staphylococcus sp.; broth dilution, 18 hours at 35° C.; strain GC 4546
  MIC Staphylococcus haemolyticus (GC 4546): 2 µg/mL (≈ 1.34 µM)
Staphylococcus sp.; [2]
  MIC Coagulase Negative Staphylococcus (GC 4547): 4 µg/mL (≈ 2.69 µM)
Staphylococcus sp.; broth dilution, 18 hours at 35° C.; strain GC 4548
  MIC Coagulase Negative Staphylococcus (GC 4548): 2 µg/mL (≈ 1.34 µM)
Staphylococcus sp.; broth dilution, 18 hours at 35° C.; strain GC 4549
  MIC Coagulase Negative Staphylococcus (GC 4549): 1 µg/mL (≈ 0.672 µM)
Staphylococcus sp.; broth dilution, 18 hours at 35° C.; strain GC 4551
  MIC Coagulase Negative Staphylococcus (GC 4551): 4 µg/mL (≈ 2.69 µM)
Staphylococcus sp.; broth dilution, 18 hours at 35° C.; strain GC 6257
  MIC Coagulase Negative Staphylococcus (GC 6257): 1 µg/mL (≈ 0.672 µM)
Enterococcus sp.
  MIC Enterococcus faecalis (GC 2242): 4 µg/mL (≈ 2.69 µM)
  MIC Enterococcus faecalis (GC 2691): 2 µg/mL (≈ 1.34 µM)
  MIC Enterococcus faecalis (GC 3059): 2 µg/mL (≈ 1.34 µM)
  MIC Enterococcus faecalis (GC 4552): 4 µg/mL (≈ 2.69 µM)
Enterococcus sp.; strain ATCC 29212
  MIC Enterococcus faecalis (ATCC 29212): 4 µg/mL (≈ 2.69 µM)
Enterococcus sp.; strain GC 2243
  MIC Enterococcus faecium (GC 2243): 2 µg/mL (≈ 1.34 µM)
Enterococcus sp.; strain GC 4552
  MIC Enterococcus faecalis (GC 4552): 4 µg/mL (≈ 2.69 µM)
Enterococcus sp.; strain GC 4553
  MIC Enterococcus faecalis (GC 4553): 4 µg/mL (≈ 2.69 µM)
Enterococcus sp.; strain GC 4554
  MIC Enterococcus faecalis (GC 4554): 4 µg/mL (≈ 2.69 µM)
Enterococcus sp.; strain GC 4556
  MIC Enterococcus faecium (GC 4556): 2 µg/mL (≈ 1.34 µM)
Enterococcus sp.; strain GC 4557
  MIC Enterococcus faecium (GC 4557): 2 µg/mL (≈ 1.34 µM)
Enterococcus sp.; strain GC 4558
  MIC Enterococcus avium (GC 4558): 2 µg/mL (≈ 1.34 µM)
Enterococcus sp.; strain GC 6189
  MIC Enterococcus faecalis (GC 6189): 2 µg/mL (≈ 1.34 µM)
Enterococcus sp.; inoculum 5×10^5 CFU/mL, strain GC 2242
  MIC Enterococcus faecalis (GC 2242): 4 µg/mL (≈ 2.69 µM)
Enterococcus sp.; inoculum 5×10^5 CFU/mL, strain GC 2691
  MIC Enterococcus faecalis (GC 2691): 2 µg/mL (≈ 1.34 µM)
Enterococcus sp.; inoculum 5×10^5 CFU/mL, strain GC 3059
  MIC Enterococcus faecalis (GC 3059): 2 µg/mL (≈ 1.34 µM)
